Assay results published in patent publication US10906910B2, “Substituted bicyclic pyrimidine compounds with tubulin and multiple receptor inhibition” (Duquesne University of the Holy Spirit, priority 2014, dated 2021).

Assays:
MDA-MB-435 = experiment: NCI 60 panel, Melanoma MDA-MB-435; format: cell-based; conditions: Homo sapiens, read-out: Tumor cell inhibitory activity (NCI) GI50
HCC-2998 = experiment: NCI 60 panel, Colon Cancer HCC-2998; format: cell-based; conditions: Homo sapiens, read-out: Tumor cell inhibitory activity (NCI) GI50
SK-MEL-28 = experiment: NCI 60 panel, Melanoma SK-MEL-28; format: cell-based; conditions: Homo sapiens, read-out: Tumor cell inhibitory activity (NCI) GI50
MDA-MB-468 = experiment: NCI 60 panel, Breast Cancer MDA-MB-468; format: cell-based; conditions: Homo sapiens, read-out: Tumor cell inhibitory activity (NCI) GI50
A498 = experiment: NCI 60 panel, Renal Cancer A498; format: cell-based; conditions: Homo sapiens, read-out: Tumor cell inhibitory activity (NCI) GI50
PDGFRβ = PDGFRβ (Homo sapiens, UniProt P09619); experiment: PDGFRβ kinase inhibition, whole-cell assay; format: cell-based
SF-539 = experiment: NCI 60 panel, CNS Cancer SF-539; format: cell-based; conditions: Homo sapiens, read-out: Tumor cell inhibitory activity (NCI) GI50
HS 578T = experiment: NCI 60 panel, Breast Cancer HS 578T; format: cell-based; conditions: Homo sapiens, read-out: Tumor cell inhibitory activity (NCI) GI50
NCI-H522 = experiment: NCI 60 panel, NSCLC NCI-H522; format: cell-based; conditions: Homo sapiens, read-out: Tumor cell inhibitory activity (NCI) GI50
KM12 = experiment: NCI 60 panel, Colon Cancer KM12; format: cell-based; conditions: Homo sapiens, read-out: Tumor cell inhibitory activity (NCI) GI50
MDA-MB-231/ATCC = experiment: NCI 60 panel, Breast Cancer MDA-MB-231/ATCC; format: cell-based; conditions: Homo sapiens, read-out: Tumor cell inhibitory activity (NCI) GI50
SF-268 = experiment: NCI 60 panel, CNS Cancer SF-268; format: cell-based; conditions: Homo sapiens, read-out: Tumor cell inhibitory activity (NCI) GI50
DU-145 = experiment: NCI 60 panel, Prostate Cancer DU-145; format: cell-based; conditions: Homo sapiens, read-out: Tumor cell inhibitory activity (NCI) GI50
A549/ATCC = experiment: NCI 60 panel, NSCLC A549/ATCC; format: cell-based; conditions: Homo sapiens, read-out: Tumor cell inhibitory activity (NCI) GI50
COLO 205 = experiment: NCI 60 panel, Colon Cancer COLO 205; format: cell-based; conditions: Homo sapiens, read-out: Tumor cell inhibitory activity (NCI) GI50
VEGFR2 = VEGFR2 (Homo sapiens, UniProt P35968); experiment: VEGFR2 kinase inhibition, whole-cell assay; format: cell-based; conditions: read-out: kinase inhibition IC50 [whole-cell assays] VEGFR2
SK-MEL-5 = experiment: NCI 60 panel, Melanoma SK-MEL-5; format: cell-based; conditions: Homo sapiens, read-out: Tumor cell inhibitory activity (NCI) GI50
NCI-H226 = experiment: NCI 60 panel, NSCLC NCI-H226; format: cell-based; conditions: Homo sapiens, read-out: Tumor cell inhibitory activity (NCI) GI50
K-562 = experiment: NCI 60 panel, Leukemia K-562; format: cell-based; conditions: Homo sapiens, K562, read-out: Tumor cell inhibitory activity (NCI) GI50
HL-60(TB) = experiment: NCI 60 panel, Leukemia HL-60(TB); format: cell-based; conditions: Homo sapiens, read-out: Tumor cell inhibitory activity (NCI) GI50
RXF 393 = experiment: NCI 60 panel, Renal Cancer RXF 393; format: cell-based; conditions: Homo sapiens, read-out: Tumor cell inhibitory activity (NCI) GI50
NCI-H23 = experiment: NCI 60 panel, NSCLC NCI-H23; format: cell-based; conditions: Homo sapiens, read-out: Tumor cell inhibitory activity (NCI) GI50
EGFR = EGFR (Homo sapiens, UniProt P00533); experiment: EGFR kinase inhibition, whole-cell assay; format: cell-based; conditions: read-out: kinase inhibition IC50 [whole-cell assays] EGFR
IGROVI = experiment: NCI 60 panel, Ovarian cancer IGROVI; format: cell-based; conditions: read-out: Tumor cell inhibitory activity (NCI) GI50
HCT-15 = experiment: NCI 60 panel, Colon Cancer HCT-15; format: cell-based; conditions: Homo sapiens, read-out: Tumor cell inhibitory activity (NCI) GI50
OVCAR-3 = experiment: NCI 60 panel, Ovarian cancer OVCAR-3; format: cell-based; conditions: Homo sapiens, read-out: Tumor cell inhibitory activity (NCI) GI50
NCI/ADR-RES = experiment: NCI 60 panel, Ovarian cancer NCI/ADR-RES; format: cell-based; conditions: Homo sapiens, read-out: Tumor cell inhibitory activity (NCI) GI50
SF-295 = experiment: NCI 60 panel, CNS Cancer SF-295; format: cell-based; conditions: Homo sapiens, read-out: Tumor cell inhibitory activity (NCI) GI50
MALME-3M = experiment: NCI 60 panel, Melanoma MALME-3M; format: cell-based; conditions: Homo sapiens, read-out: Tumor cell inhibitory activity (NCI) GI50
UO-31 = experiment: NCI 60 panel, Renal Cancer UO-31; format: cell-based; conditions: Homo sapiens, read-out: Tumor cell inhibitory activity (NCI) GI50
CAKI-1 = experiment: NCI 60 panel, Renal Cancer CAKI-1; format: cell-based; conditions: Homo sapiens, read-out: Tumor cell inhibitory activity (NCI) GI50
NCI-H322M = experiment: NCI 60 panel, NSCLC NCI-H322M; format: cell-based; conditions: Homo sapiens, read-out: Tumor cell inhibitory activity (NCI) GI50
ACHN = experiment: NCI 60 panel, Renal Cancer ACHN; format: cell-based; conditions: Homo sapiens, read-out: Tumor cell inhibitory activity (NCI) GI50
786-0 = experiment: NCI 60 panel, Renal Cancer 786-0; format: cell-based; conditions: Homo sapiens, read-out: Tumor cell inhibitory activity (NCI) GI50
bovine brain tubulin = experiment: inhibition of tubulin assembly; format: biochemical
SR = experiment: NCI 60 panel, Leukemia SR; format: cell-based; conditions: Homo sapiens, read-out: Tumor cell inhibitory activity (NCI) GI50
PC-3 = experiment: NCI 60 panel, Prostate Cancer PC-3; format: cell-based; conditions: Homo sapiens, read-out: Tumor cell inhibitory activity (NCI) GI50
[1] = tested on: NCI 60 tumor cell line panel; experiment: NCI 60 tumor cell line panel, overall; format: cell-based
HCT-116 = experiment: NCI 60 panel, Colon Cancer HCT-116; format: cell-based; conditions: Homo sapiens, read-out: Tumor cell inhibitory activity (NCI) GI50
[2] = tested on: tubulin (colchicine site); experiment: inhibition of [3H]colchicine binding to tubulin; design: species or system bovine
A431 cells = experiment: A431 cytotoxicity; format: cell-based; conditions: Homo sapiens, A-431
RPMI-8226 = experiment: NCI 60 panel, Leukemia RPMI-8226; format: cell-based; conditions: Homo sapiens, read-out: Tumor cell inhibitory activity (NCI) GI50
CCRF-CEM = experiment: NCI 60 panel, Leukemia CCRF-CEM; format: cell-based; conditions: Homo sapiens, read-out: Tumor cell inhibitory activity (NCI) GI50
OVCAR-8 = experiment: NCI 60 panel, Ovarian cancer OVCAR-8; format: cell-based; conditions: Homo sapiens, read-out: Tumor cell inhibitory activity (NCI) GI50
BT-549 = experiment: NCI 60 panel, Breast Cancer BT-549; format: cell-based; conditions: Homo sapiens, read-out: Tumor cell inhibitory activity (NCI) GI50
wild type HeLa cells = experiment: HeLa cytotoxicity, wild type; format: cell-based; conditions: Homo sapiens
U251 = experiment: NCI 60 panel, CNS Cancer U251; format: cell-based; conditions: Homo sapiens, U-251, read-out: Tumor cell inhibitory activity (NCI) GI50
SN12C = experiment: NCI 60 panel, Renal Cancer SN12C; format: cell-based; conditions: Homo sapiens, read-out: Tumor cell inhibitory activity (NCI) GI50
SK-OV-3 = experiment: NCI 60 panel, Ovarian cancer SK-OV-3; format: cell-based; conditions: Homo sapiens, read-out: Tumor cell inhibitory activity (NCI) GI50
[3] = tested on: blood vessel formation in the chicken chorioallantoic membrane (CAM); experiment: chicken chorioallantoic membrane (CAM) antiangiogenic activity assay; format: in vivo; conditions: Gallus gallus
[4] = compared with combretastatin A-4

Chain of PDGFRβ (P09619 33-1106, species assumed): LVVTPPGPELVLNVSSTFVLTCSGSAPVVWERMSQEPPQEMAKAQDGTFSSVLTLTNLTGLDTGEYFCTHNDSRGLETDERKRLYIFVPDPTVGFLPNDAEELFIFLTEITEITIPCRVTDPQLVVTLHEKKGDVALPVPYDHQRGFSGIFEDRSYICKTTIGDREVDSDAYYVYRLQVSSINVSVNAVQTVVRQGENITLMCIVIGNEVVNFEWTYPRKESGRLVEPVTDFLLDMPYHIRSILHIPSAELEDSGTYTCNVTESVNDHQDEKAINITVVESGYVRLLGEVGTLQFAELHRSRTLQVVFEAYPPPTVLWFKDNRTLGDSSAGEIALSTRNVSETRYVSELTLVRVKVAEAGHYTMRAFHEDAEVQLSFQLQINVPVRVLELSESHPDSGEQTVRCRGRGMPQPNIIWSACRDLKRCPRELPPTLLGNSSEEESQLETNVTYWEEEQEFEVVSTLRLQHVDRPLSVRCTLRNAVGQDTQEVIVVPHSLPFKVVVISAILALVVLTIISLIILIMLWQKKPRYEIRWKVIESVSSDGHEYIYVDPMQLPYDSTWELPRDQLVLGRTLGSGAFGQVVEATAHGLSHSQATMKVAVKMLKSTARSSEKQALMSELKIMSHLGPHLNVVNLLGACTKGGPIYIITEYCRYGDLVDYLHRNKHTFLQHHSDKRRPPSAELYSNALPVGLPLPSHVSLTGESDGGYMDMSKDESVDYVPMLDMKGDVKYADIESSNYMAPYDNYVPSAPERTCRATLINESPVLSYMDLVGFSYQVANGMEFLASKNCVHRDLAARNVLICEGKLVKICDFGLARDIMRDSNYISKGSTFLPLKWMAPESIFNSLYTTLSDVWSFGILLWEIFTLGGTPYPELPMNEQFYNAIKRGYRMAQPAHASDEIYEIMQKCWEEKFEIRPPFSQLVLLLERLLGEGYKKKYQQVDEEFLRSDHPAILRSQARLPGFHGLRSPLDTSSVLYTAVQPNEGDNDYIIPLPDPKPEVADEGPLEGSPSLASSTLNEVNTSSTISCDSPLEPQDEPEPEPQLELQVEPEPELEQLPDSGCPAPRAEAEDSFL
Chain of EGFR (P00533 25-1210, species assumed): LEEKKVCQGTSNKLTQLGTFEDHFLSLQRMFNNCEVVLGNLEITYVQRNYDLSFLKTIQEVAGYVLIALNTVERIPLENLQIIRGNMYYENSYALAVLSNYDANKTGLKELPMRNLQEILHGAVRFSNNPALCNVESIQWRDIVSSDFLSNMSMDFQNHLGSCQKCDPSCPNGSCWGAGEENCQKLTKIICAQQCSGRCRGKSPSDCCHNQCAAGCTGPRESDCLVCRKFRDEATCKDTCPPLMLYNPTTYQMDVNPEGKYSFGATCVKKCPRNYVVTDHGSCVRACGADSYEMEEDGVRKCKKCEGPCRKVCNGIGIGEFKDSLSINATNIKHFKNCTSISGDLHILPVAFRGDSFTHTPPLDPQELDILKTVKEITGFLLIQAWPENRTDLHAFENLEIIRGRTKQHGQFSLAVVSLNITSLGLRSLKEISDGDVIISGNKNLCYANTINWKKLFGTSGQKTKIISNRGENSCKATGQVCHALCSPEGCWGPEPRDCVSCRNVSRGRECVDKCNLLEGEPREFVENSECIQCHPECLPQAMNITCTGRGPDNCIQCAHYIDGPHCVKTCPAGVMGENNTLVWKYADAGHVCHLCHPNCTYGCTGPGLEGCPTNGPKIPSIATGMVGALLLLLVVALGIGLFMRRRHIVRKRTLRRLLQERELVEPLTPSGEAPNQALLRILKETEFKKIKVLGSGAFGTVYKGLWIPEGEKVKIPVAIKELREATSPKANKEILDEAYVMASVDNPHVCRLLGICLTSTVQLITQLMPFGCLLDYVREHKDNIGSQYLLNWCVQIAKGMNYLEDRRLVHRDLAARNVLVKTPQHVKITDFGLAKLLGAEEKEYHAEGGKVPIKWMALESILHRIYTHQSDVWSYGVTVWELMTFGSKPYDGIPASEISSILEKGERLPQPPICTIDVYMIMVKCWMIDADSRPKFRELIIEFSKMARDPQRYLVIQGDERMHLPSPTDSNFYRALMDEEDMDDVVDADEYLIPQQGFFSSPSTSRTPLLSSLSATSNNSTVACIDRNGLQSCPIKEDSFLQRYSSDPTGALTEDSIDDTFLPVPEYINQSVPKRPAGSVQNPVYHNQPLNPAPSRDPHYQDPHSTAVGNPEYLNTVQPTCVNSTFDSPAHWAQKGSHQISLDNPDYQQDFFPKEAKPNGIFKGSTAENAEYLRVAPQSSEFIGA
Chain of VEGFR2 (P35968 20-1356, species assumed): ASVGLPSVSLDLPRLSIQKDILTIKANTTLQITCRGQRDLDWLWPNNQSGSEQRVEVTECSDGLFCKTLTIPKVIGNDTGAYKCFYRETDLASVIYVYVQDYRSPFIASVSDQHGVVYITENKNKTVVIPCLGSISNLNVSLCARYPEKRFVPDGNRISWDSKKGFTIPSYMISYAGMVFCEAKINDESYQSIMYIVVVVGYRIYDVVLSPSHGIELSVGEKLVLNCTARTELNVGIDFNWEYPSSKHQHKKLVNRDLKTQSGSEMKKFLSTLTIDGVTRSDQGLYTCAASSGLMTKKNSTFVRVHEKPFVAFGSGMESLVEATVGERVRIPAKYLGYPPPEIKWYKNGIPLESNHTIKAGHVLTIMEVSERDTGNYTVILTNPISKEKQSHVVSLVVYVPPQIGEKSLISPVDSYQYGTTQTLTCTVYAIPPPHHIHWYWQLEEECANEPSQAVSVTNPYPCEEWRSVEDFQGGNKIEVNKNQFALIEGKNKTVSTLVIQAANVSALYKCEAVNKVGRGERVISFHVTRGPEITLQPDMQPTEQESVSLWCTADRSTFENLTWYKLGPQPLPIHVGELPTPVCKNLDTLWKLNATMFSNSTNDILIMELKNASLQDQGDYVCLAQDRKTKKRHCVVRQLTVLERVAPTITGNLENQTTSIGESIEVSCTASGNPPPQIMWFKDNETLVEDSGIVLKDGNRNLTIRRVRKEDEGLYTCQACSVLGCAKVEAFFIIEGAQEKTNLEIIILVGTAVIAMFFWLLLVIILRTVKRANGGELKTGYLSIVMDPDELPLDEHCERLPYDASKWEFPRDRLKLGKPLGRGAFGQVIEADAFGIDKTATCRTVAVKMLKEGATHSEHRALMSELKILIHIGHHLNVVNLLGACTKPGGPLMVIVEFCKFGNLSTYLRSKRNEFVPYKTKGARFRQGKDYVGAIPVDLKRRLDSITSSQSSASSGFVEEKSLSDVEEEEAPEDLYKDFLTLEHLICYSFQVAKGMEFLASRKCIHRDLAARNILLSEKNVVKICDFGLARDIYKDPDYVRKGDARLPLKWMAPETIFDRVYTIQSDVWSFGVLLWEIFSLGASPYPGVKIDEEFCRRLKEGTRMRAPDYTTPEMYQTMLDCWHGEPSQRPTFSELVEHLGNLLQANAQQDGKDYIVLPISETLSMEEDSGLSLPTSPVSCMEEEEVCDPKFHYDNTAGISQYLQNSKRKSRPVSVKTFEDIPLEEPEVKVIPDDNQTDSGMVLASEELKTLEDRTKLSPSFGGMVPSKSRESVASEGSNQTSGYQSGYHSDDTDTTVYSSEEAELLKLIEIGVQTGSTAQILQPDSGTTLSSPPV

## COc1ccc(N(C)c2nc(C)nc3c(Cc4ccccc4)cn(C)c23)cc1 [Compound 4, 7-Benzyl-N-(4-methoxyphenyl)-N,2,5-trimethyl-5H-pyrrolo[3,2-d]pyrimidin-4-amine]
MDA-MB-435
  GI50: 0.0214 µM
HCC-2998
  GI50: 0.0711 µM
SK-MEL-28
  GI50: 0.0487 µM
MDA-MB-468
  GI50: 0.0301 µM
A498
  GI50: 0.0202 µM
PDGFRβ
  potency against PDGFRβ, in words: potencies comparable with DMBI
PDGFRβ; whole-cell assay, read-out: kinase inhibition IC50 [whole-cell assays] PDGFRβ
  IC50: 0.0103 µM
SF-539
  GI50: 0.0254 µM
HS 578T
  GI50: 0.0623 µM
NCI-H522
  GI50: 0.0239 µM
KM12
  GI50: 0.0445 µM
MDA-MB-231/ATCC
  GI50: 0.0637 µM
SF-268
  GI50: 0.35 µM
DU-145
  GI50: 0.0444 µM
A549/ATCC
  GI50: 0.044 µM
COLO 205
  GI50: 0.0263 µM
VEGFR2
  IC50: 0.033 µM
SK-MEL-5
  GI50: 0.0542 µM
NCI-H226
  GI50: 0.304 µM
K-562
  GI50: 0.0337 µM
HL-60(TB)
  GI50: 0.0268 µM
RXF 393
  GI50: 0.0254 µM
NCI-H23
  GI50: 0.0458 µM
EGFR
  IC50: 0.0023 ± 0.0003 µM
IGROVI
  GI50: 0.0958 µM
HCT-15
  GI50: 0.0381 µM
OVCAR-3
  GI50: 0.0352 µM
NCI/ADR-RES
  GI50: 0.0328 µM
SF-295
  GI50: 0.0304 µM
MALME-3M
  GI50: 0.0177 µM
UO-31
  GI50: 0.209 µM
CAKI-1
  GI50: 0.0566 µM
NCI-H322M
  GI50: 0.0736 µM
ACHN
  GI50: 0.172 µM
786-0
  GI50: 0.0932 µM
Bovine brain tubulin; bovine tubulin
  IC50: 0.48 ± 0.008 µM
Bovine brain tubulin; [4]
  inhibition of bovine tubulin assembly, in words: effective and potent inhibitors
SR
  GI50: 0.0338 µM
PC-3
  GI50: 0.0496 µM
[1]
  GI50 across the NCI 60 tumor cell line panel, in words: 2- to 3-digit nanomolar
HCT-116
  GI50: 0.035 µM
[2]; 1 μM inhibitor, [3H]colchicine, in % (unit assumed)
  inhibition of colchicine binding (1 μM inhibitor): 73 ± 3
[2]; 5 μM inhibitor, [3H]colchicine, in % (unit assumed)
  inhibition of colchicine binding (5 μM inhibitor): 92 ± 0.2
[2]; [4]
  inhibition of [3H]colchicine binding to tubulin, in words: potent inhibitors
A431 cells
  IC50: 0.0012 µM
RPMI-8226
  GI50: 0.0369 µM
CCRF-CEM
  GI50: 0.0335 µM
OVCAR-8
  GI50: 0.0491 µM
BT-549
  GI50: 0.0482 µM
Wild type HeLa cells
  IC50: 0.014 ± 0.002 µM
U251
  GI50: 0.0443 µM
SN12C
  GI50: 0.0887 µM
SK-OV-3
  GI50: 0.0454 µM
[3]
  IC50: 2.2 ± 0.4 µM
